From patent US20230100559A1, “Compositions and Methods for Treatment of Disease by Manipulation of Serine Metabolism” (The Trustees of Princeton University, priority 2020, published 2023)
“Also recorded” adds a separate entry of the source.

Tests used:
NDUFS4−/− mice = assay: Treatment of NDUFS4−/− mice (mitochondrial disease model); assay type: in vivo
Protocol: NDUFS4−/− mice were housed with normal mice and gel food was supplied to guarantee sufficient food supply. Mice were grouped as vehicle control group and SHIN2 treatment groups. SHIN2 was dissolved in 20% 2-hydroxypropyl-cyclodextrin solution, and delivered by intraperitoneal (50 μg/g mice) b.i.d. Mice weights were recorded every day. Limb clasps were recorded daily, with mice annotated as having the pathological limb clasping phenotype on the third consecutive day of clasping. 20% weight loss of the peak weight for each mouse is considered as the humane endpoint.
Mouse Model. B6.129S4-Ndufs4+/− mice were purchased from Jackson laboratories. The mice are heterozygous for a protein in mitochondrial complex 1 and have been bred to generate homozygous knockout mouse for the study of mitochondrial deficiency. These mice are a model of mitochondrial disease and knockouts are healthy until approximately 5 weeks age, but develop lethal encephalomyopathy by 7 weeks.
Treatment strategy: Mice were grouped as vehicle treatment group and KDG112 treatment group. KDG112 was dissolved in 20% hydroxypropyl cyclodextrin to a final concentration of 5 mg/ml. Mice were dosed B.I.D at 50 mg/kg ip. Mice weight and body temperature are recorded, and body condition score were given according to the chart below.

[1] = system: NADH production by serine catabolism; assay: In vivo [2,3,3-2H]serine infusion, malate labeling; conditions: WT C57BL6/J mice, SHIN2 200 mg/kg ip single injection before 2.5 h tracer infusion
Protocol: Mouse breeding and isotope tracing. Animal studies followed protocols approved by the Princeton University Institutional Animal Care and Use Committee and the Rutgers University Institutional Animal Care and Use Committee. NDUFS4+/− mice were purchased from Jackson Laboratory. The mice were on normal light cycle (7 AM-7 PM). In vivo infusion was performed on 9-week old normal C57BL/6 mice pre-catheterized on the right jugular vein, and 4-week old NDUFS4−/− or NDUFS4+/+ mice pre-catheterized on the jugular vein. Infusion was performed for 2.5 h to achieve isotopic pseudo-steady state. The mouse infusion setup included a tether and swivel system, connecting to the button pre-implanted under the back skin of mice. Mice were fasted from 9:00 am to 2 pm, and infused from 2 pm till 4:30 pm. […]
Calculation of 2H-serine contribution to malate, aspartate, and NADH: For malate and aspartate, the 2H-labeling fraction was measured directly (fractional size of 2H-peak relative to sum of all peaks, after isotope correction as above). For NADH, the 2H-labeling fraction was measured based on the active hydride labeling (x), which was determined from the labeling pattern of NAD+ and NADH by least square fitting in MATLAB of the observed experimental data (after natural isotope correction) to the below vectors (Liu et al., 2016a). […]

[2] = KDG112 50 mg/kg ip B.I.D, compared to vehicle

Cc1n[nH]c2c1C(c1cc(C#CCCCO)cc(CO)c1)(C(C)C)C(C#N)=C(N)O2 (stereo not drawn) [SHIN2]
body condition score (NDUFS4−/− mice; [2]): lower score
body temperature (NDUFS4−/− mice; [2]): higher body temperature
locomotor activity (NDUFS4−/− mice; [2]): better locomotor activity
symptoms of hind limb clasp (NDUFS4−/− mice; [2]): delayed symptoms of hind limb clasp
pathological limb clasping (NDUFS4−/− mice; SHIN2 50 mg/kg b.i.d. from postnatal day 25±4, versus vehicle, 50 mg/kg): Delayed occurrence of limb clasping; also recorded: delayed pathological clasping behavior
survival (NDUFS4−/− mice; SHIN2 50 mg/kg b.i.d. versus vehicle, p=0.18, log-rank Test): not significantly altering survival
time after day 49 until hind limb clasping symptoms develop (NDUFS4−/− mice; first pair of pups, KDG112 treated mouse): 10 days
leg control and cage edge test (NDUFS4−/− mice; first pair of pups, day 49 (P49), treatment from P29): can control its leg normally as wild type, and can walk freely on the edge test
body weight (NDUFS4−/− mice; first pair of pups, day 63): still maintains its weight
day at which symptoms such as hind limb clasping develop (NDUFS4−/− mice; second pair of pups, KDG112 treated mouse): 47 days
behaviour (NDUFS4−/− mice; second pair of pups, day 38, treatment from P28): behaves normally
malate labeling from [2,3,3-2H]serine (NADH production by serine catabolism) [1]: blocks NADH production by serine catabolism in vivo; also recorded: blocked most malate labeling
